From patent US12617785B2, “Pyrrolo[2,3-b]pyridine-3-carboxamide compositions and methods for ameliorating hearing loss” (priority 2020, dated 2026) come the findings set out here.

Where a name gives a salt, the structure may show the parent alone.

For one test, the target named is T1, Lats1 (Homo sapiens, UniProt O95835).
T1 construct: purchased Carna 01-123
T1 sequence (O95835 1-1130): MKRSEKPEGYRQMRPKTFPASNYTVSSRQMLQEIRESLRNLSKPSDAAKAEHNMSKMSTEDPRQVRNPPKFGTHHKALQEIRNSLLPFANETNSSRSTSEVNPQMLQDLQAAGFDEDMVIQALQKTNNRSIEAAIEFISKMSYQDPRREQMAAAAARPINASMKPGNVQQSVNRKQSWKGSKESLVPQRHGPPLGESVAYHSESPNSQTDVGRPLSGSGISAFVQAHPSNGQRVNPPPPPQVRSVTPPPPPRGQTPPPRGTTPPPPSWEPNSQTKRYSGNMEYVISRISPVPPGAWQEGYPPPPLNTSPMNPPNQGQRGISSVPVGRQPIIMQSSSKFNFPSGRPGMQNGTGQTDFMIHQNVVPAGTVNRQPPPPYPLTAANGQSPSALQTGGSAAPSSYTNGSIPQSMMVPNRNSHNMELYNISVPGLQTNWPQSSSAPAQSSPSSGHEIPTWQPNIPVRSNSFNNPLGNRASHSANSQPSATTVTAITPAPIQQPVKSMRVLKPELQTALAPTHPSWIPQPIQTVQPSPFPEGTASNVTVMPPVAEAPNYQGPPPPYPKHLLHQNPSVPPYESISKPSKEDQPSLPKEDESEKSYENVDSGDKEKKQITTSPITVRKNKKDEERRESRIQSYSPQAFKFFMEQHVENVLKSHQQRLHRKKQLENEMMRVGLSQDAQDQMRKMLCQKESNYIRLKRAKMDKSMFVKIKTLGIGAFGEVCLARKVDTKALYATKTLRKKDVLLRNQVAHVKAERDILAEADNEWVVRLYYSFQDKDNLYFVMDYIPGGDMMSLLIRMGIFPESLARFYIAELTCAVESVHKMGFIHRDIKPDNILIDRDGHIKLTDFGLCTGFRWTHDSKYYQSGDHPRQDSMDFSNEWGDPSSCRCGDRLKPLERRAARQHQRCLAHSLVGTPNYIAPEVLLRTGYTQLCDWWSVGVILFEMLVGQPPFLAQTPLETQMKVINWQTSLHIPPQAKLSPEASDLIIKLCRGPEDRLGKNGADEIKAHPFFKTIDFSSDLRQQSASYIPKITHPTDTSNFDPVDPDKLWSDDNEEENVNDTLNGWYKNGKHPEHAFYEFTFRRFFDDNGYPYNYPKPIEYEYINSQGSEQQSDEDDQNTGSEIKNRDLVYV
Put plainly: In vitro kinase assay (HTRF KinEASE-STK S1) Lats1, 10 uM ATP. In kind it is biochemical. The conditions noted are these: 10 uM ATP; read-out: LATS1_HTRF_10 uM ATP IC50. As to the method:
IVKA assay at 10 uM method:
(§1) Reactions were conducted with 10 μM STK1 substrate and 10 μM ATP or 2 mM ATP as shown below. […] The enzyme, substrate, ATP, and test compound of the invention were combined in a low-volume 384-well plate and shaken for 50 min at room temperature, unless otherwise indicated. The reaction was stopped by adding the detection reagents, which were prepared at an 8:1 biotin:streptavidin ratio and shaking for 60 min at room temperature. All reactions were conducted in triplicate and a Synergy NEO (Biotek) was used to detect the signal.
A general note: In TR-FRET formats the signal depends on donor and acceptor labels being close together.
Consider `Cc1ccc2c(C(=O)/N=c3\sccn3Cc3ccccc3)c[nH]c2n1` [T02], for which the IC50 is 5840 nM.

Take `Cc1cnc2[nH]cc(C(=O)/N=c3\sccn3Cc3ccccc3)c2c1` [T03]: the IC50 stood at 148 nM.

`Cc1[nH]c2ncccc2c1C(=O)/N=c1\sccn1Cc1ccccc1` [T04]: the concentration for half-maximal inhibition (IC50) came to 159 nM.

Turning to `O=C(/N=c1\sccn1Cc1ccccc1)c1c[nH]c2ncc(Cl)cc12` [T06], the IC50 stood at 92.2 nM.

As to `Cc1cn(Cc2ccccc2)/c(=N/C(=O)c2c[nH]c3ncccc23)s1` [T26], the IC50 came to 74.5 nM.

Take `COC(=O)c1cccc(Cn2ccs/c2=N\C(=O)c2c[nH]c3ncccc23)c1` [T33]: the IC50 was determined as 224 nM.

On to `O=C(O)c1cccc(Cn2ccs/c2=N\C(=O)c2c[nH]c3ncccc23)c1` [T34], for which the IC50 was found to be 6250 nM.

Consider `Cn1ccs/c1=N\C(=O)c1c[nH]c2ncccc12` [T37, (Z)—N-(3-methylthiazol-2(3H)-ylidene)-1H-pyrrolo[2,3-b]pyridine-3-carboxamide], for which the half-maximal inhibitory concentration (IC50) is 233 nM.

On to `CCn1ccs/c1=N\C(=O)c1c[nH]c2ncccc12` [T38, (Z)—N-(3-ethylthiazol-2(3H)-ylidene)-1H-pyrrolo[2,3-b]pyridine-3-carboxamide], for which the IC50 was 27 nM.

On to `O=C(/N=c1\sccn1CCc1ccccc1)c1c[nH]c2ncccc12` [T40], for which the IC50 is 88.7 nM.

Another test addresses T1, Lats1. Briefly: In vitro kinase assay (HTRF KinEASE-STK S1) Lats1, 2 mM ATP. In kind it is biochemical.
Conditions: not given
As to the method:
as §1
Assay was carried out in a 384 well plate. Each drug dosage curve was done with 16 points of 3-fold dilutions in 100% DMSO, and triplicate.
Take `Cc1ccccc1-n1ccs/c1=N\C(=O)c1c[nH]c2ncccc12` [T19]: the IC50 turned out to be 0.3 nM.

Regarding `COc1ccc(-n2ccs/c2=N\C(=O)c2c[nH]c3ncccc23)cc1` [T24], the IC50 came out at 112 nM.

Consider `O=C(/N=c1\sccn1-c1ccc(Cl)cc1)c1c[nH]c2ncccc12` [T27], for which the IC50 came to 44.9 nM.

On to `O=C(/N=c1\sccn1-c1ccccc1Br)c1c[nH]c2ncccc12` [T29], for which the half-inhibitory concentration (IC50) was found to be 20.5 nM.

In the case of `O=C(/N=c1\sccn1-c1ccccn1)c1c[nH]c2ncccc12` [T30], the IC50 was found to be 279 nM.

For `O=C(/N=c1\sccn1-c1cccnc1)c1c[nH]c2ncccc12` [T31], the IC50 came to 3800 nM.

`NCc1ccccc1-n1ccs/c1=N\C(=O)c1c[nH]c2ncccc12` [T32]: the 50% inhibitory concentration (IC50) amounted to 43 nM.

Regarding `Nc1cc(-n2ccs/c2=N\C(=O)c2c[nH]c3ncccc23)ccn1` [T35], the half-inhibitory concentration (IC50) was 329 nM.

As for `O=C(/N=c1\sccn1-c1ccc(CO)cc1)c1c[nH]c2ncccc12` [T36], the IC50 was 60 nM.

On to `O=C(O)CCn1ccs/c1=N\C(=O)c1c[nH]c2ncccc12` [T51, (Z)-3-(2-((1H-pyrrolo[2,3-b]pyridine-3-carbonyl)imino)thiazol-3(2H)-yl)propanoic acid], for which the half-maximal inhibitory concentration (IC50) was 607 nM.

For `O=C(/N=c1\sccn1Cc1ccncc1)c1c[nH]c2ncccc12` [T52, (Z)—N-(3-(pyridin-4-ylmethyl)thiazol-2(3H)-ylidene)-1H-pyrrolo[2,3-b]pyridine-3-carboxamide], the IC50 came out at 4880 nM.

Regarding `O=C(/N=c1\sccn1Cc1cccnc1)c1c[nH]c2ncccc12` [T53, (Z)—N-(3-(pyridin-3-ylmethyl)thiazol-2(3H)-ylidene)-1H-pyrrolo[2,3-b]pyridine-3-carboxamide], the half-inhibitory concentration (IC50) was determined as 1100 nM.

On to `O=C(/N=c1\sccn1Cc1ccccn1)c1c[nH]c2ncccc12` [T54], for which the IC50 was 11000 nM.

`O=C(/N=c1\sccn1C1CCCCC1)c1c[nH]c2ncccc12` [T57, (Z)—N-(3-cyclohexylthiazol-2(3H)-ylidene)-1H-pyrrolo[2,3-b]pyridine-3-carboxamide]: the IC50 was 0.5 nM.

As to `NC(=O)c1cccc(-n2ccs/c2=N\C(=O)c2c[nH]c3ncccc23)c1` [T60], the concentration for half-maximal inhibition (IC50) amounted to 418 nM.

Turning to `NCc1cccc(-n2ccs/c2=N\C(=O)c2c[nH]c3ncccc23)c1` [T61, (Z)—N-(3-(3-(aminomethyl)phenyl)thiazol-2(3H)-ylidene)-1H-pyrrolo[2,3-b]pyridine-3-carboxamide], the half-maximal inhibitory concentration (IC50) amounted to 18.6 nM.

Consider `CC(C)c1cs/c(=N\C(=O)c2c[nH]c3ncccc23)n1Cc1ccccc1` [T69], for which the IC50 came out at 168 nM.

For the compound `O=C(/N=c1\scc(C(F)(F)F)n1Cc1ccccc1)c1c[nH]c2ncccc12` [T71], the IC50 came out at 176 nM.

With `O=C(/N=c1\scc(CO)n1Cc1ccccc1)c1c[nH]c2ncccc12` [T72, (Z)—N-(3-benzyl-4-(hydroxymethyl)thiazol-2(3H)-ylidene)-1H-pyrrolo[2,3-b]pyridine-3-carboxamide], the IC50 was determined as 0.2 nM.

Regarding `Cc1cs/c(=N\C(=O)c2c[nH]c3ncccc23)n1C1CCCCC1` [T74], the half-maximal inhibitory concentration (IC50) stood at 0.2 nM.

On to `O=C(/N=c1\sccn1C1CCNCC1)c1c[nH]c2ncccc12` [T75, (Z)—N-(3-(piperidin-4-yl)thiazol-2(3H)-ylidene)-1H-pyrrolo[2,3-b]pyridine-3-carboxamide hydrochloride], for which the IC50 was 92.5 nM.

`O=C(/N=c1\sccn1C1CCOCC1)c1c[nH]c2ncccc12` [T76]: the IC50 came out at 2190 nM.

Regarding `CCOC(=O)c1cs/c(=N\C(=O)c2c[nH]c3ncccc23)n1Cc1ccccc1` [T79, Ethyl (2Z)-3-benzyl-2-(1H-pyrrolo[2,3-b]pyridine-3-carbonylimino)thiazole-4-carboxylate], the IC50 amounted to 22 nM.

With `CN(C)CCNC(=O)c1cs/c(=N\C(=O)c2c[nH]c3ncccc23)n1Cc1ccccc1` [T80, (Z)-3-Benzyl-N-[2-(dimethylamino)ethyl]-2-(1H-pyrrolo[2,3-b]pyridine-3-carbonylimino)thiazole-4-carboxamide], the IC50 worked out at 82 nM.

In the case of `CN(C)C(=O)c1cs/c(=N\C(=O)c2c[nH]c3ncccc23)n1-c1ccccc1Cl` [T82], the IC50 turned out to be 20 nM.

Staying with this test, now noted: 2 mM ATP; read-out: LATS1_HTRF_2 mM ATP IC50.
For `Cc1ccnc2[nH]cc(C(=O)/N=c3\sccn3Cc3ccccc3)c12` [T05], the 50% inhibitory concentration (IC50) was 3260 nM.

With `Cc1cccc(-n2ccs/c2=N\C(=O)c2c[nH]c3ncccc23)c1` [T20], the concentration for half-maximal inhibition (IC50) turned out to be 155 nM.

As to `Cc1ccc(-n2ccs/c2=N\C(=O)c2c[nH]c3ncccc23)cc1` [T21], the IC50 was determined as 7.5 nM.

As for `COc1ccccc1-n1ccs/c1=N\C(=O)c1c[nH]c2ncccc12` [T22], the IC50 turned out to be 720 nM.

For the compound `COc1cccc(-n2ccs/c2=N\C(=O)c2c[nH]c3ncccc23)c1` [T23], the IC50 amounted to 576 nM.

On to `N#Cc1ccccc1-n1ccs/c1=N\C(=O)c1c[nH]c2ncccc12` [T28], for which the concentration for half-maximal inhibition (IC50) was 194 nM.

Regarding `O=C(/N=c1\sccn1CC1CCOCC1)c1c[nH]c2ncccc12` [T56], the IC50 was determined as 1020 nM.

As for `Cn1cc(Cn2ccs/c2=N\C(=O)c2c[nH]c3ncccc23)cn1` [T59], the IC50 amounted to 6060 nM.

Take `O=C(/N=c1\sccn1-c1ccc2c(c1)CNCC2)c1c[nH]c2ncccc12` [T62, (Z)—N-(3-(1,2,3,4-tetrahydroisoquinolin-7-yl)thiazol-2(3H)-ylidene)-1H-pyrrolo[2,3-b]pyridine-3-carboxamide]: the concentration for half-maximal inhibition (IC50) came to 126 nM.

In the case of `Cn1c(Cc2ccccc2)cs/c1=N\C(=O)c1c[nH]c2ncccc12` [T64], the half-inhibitory concentration (IC50) was 7860 nM.

Turning to `O=C(/N=c1\sccn1-c1ccccc1Cl)c1c[nH]c2ncccc12` [T65], the IC50 stood at 0.1 nM.

As for `O=C(/N=c1\sccn1-c1cccc(Cl)c1)c1c[nH]c2ncccc12` [T66], the IC50 was determined as 193 nM.

With `CCc1cs/c(=N\C(=O)c2c[nH]c3ncccc23)n1Cc1ccccc1` [T68], the half-inhibitory concentration (IC50) turned out to be 59.5 nM.

With `Cc1cs/c(=N\C(=O)c2c[nH]c3ncccc23)n1CC1CCCCC1` [T73], the IC50 amounted to 0.8 nM.

As to `Cc1co/c(=N\C(=O)c2c[nH]c3ncccc23)n1Cc1ccccc1` [T77, (Z)—N-(3-benzyl-4-methyloxazol-2(3H)-ylidene)-1H-pyrrolo[2,3-b]pyridine-3-carboxamide], the half-inhibitory concentration (IC50) is 107 nM.

As to `O=C(/N=c1\occ(CO)n1Cc1ccccc1)c1c[nH]c2ncccc12` [T78, (Z)—N-(3-benzyl-4-(hydroxymethyl)oxazol-2(3H)-ylidene)-1H-pyrrolo[2,3-b]pyridine-3-carboxamide], the IC50 came to 1.6 nM.

Consider `CNC(=O)c1cs/c(=N\C(=O)c2c[nH]c3ncccc23)n1-c1ccccc1Cl` [T81], for which the half-inhibitory concentration (IC50) turned out to be 3.67 nM.

What is called IC50 is the concentration needed to halve the response being measured.
